Measurements: PubChem BioAssay AID1963986 (Molecular Pharmacology Branch, DTP, NCI, 2024)
Values belong to the molecule of their own block, whether it stands above or below them.

Tested on: 171881-019-R-J1-PDC tumor spheroid viability
Assay: Anticancer human tumor 171881-019-R-J1-PDC patient-derived invasive breast carcinoma cell line growth inhibition [PI3K]
Details: spheroids with HUVEC and MSC; for IC50: curve of first compound; for viability, T/C: stronger effect = lower value
Method in brief: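 Tumor cells grown as multi-cell spheroids with HUVEC endothelial cells and MSC fibroblast-like stroma were treated with targeted agents combined with inavolisib, alpelisib, duvelisib or copanlisib. Doses fell in half-log steps from near clinical Cmax, else from 10 microM. Viability was measured.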

[1] = second compound 0.0316 µM, first compound 0.0316 µM
[2] = second compound 0.0316 µM, first compound 0.1 µM
[3] = second compound 0.0316 µM, first compound 0.316 µM
[4] = second compound 0.0316 µM, first compound 1 µM
[5] = second compound 0.0316 µM, first compound 3.16 µM
[6] = second compound 0.0316 µM, first compound 10 µM
[7] = second compound 0.1 µM, first compound 0.0316 µM
[8] = second compound 0.1 µM, first compound 0.1 µM
[9] = second compound 0.1 µM, first compound 0.316 µM
[10] = second compound 0.1 µM, first compound 1 µM
[11] = second compound 0.1 µM, first compound 3.16 µM
[12] = second compound 0.1 µM, first compound 10 µM
[13] = second compound 0.316 µM, first compound 0.0316 µM
[14] = second compound 0.316 µM, first compound 0.1 µM
[15] = second compound 0.316 µM, first compound 0.316 µM
[16] = second compound 0.316 µM, first compound 1 µM
[17] = second compound 0.316 µM, first compound 3.16 µM
[18] = second compound 0.316 µM, first compound 10 µM
[19] = second compound 1 µM, first compound 0.0316 µM
[20] = second compound 1 µM, first compound 0.1 µM
[21] = second compound 1 µM, first compound 0.316 µM
[22] = second compound 1 µM, first compound 1 µM
[23] = second compound 1 µM, first compound 3.16 µM
[24] = second compound 1 µM, first compound 10 µM
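Further: spheroids exposed to compound for 7 days before viability read.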
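Wherever viability, T/C is given: 100% = DMSO vehicle-treated spheroids.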

IC50 (second compound 0.0316 µM): 0.155 µM
IC50 (second compound 0.1 µM): 0.0907 µM
IC50 (second compound 0.316 µM): 0.0329 µM
IC50 (second compound 1 µM): < 0.0316 µM
IC50 (second compound 3.16 µM): < 0.0316 µM
IC50 (second compound 10 µM): < 0.0316 µM
SMILES: Cn1ncc(Cl)c1-c1cc(C(=O)NC(CN)Cc2cccc(F)c2)sc1Cl (centres undefined) + Cc1nc(NC(=O)N2CCCC2C(N)=O)sc1-c1ccnc(C(C)(C)C(F)(F)F)c1
viability, T/C [1]: 77.8%
viability, T/C [2]: 60%
viability, T/C [3]: 34.2%
viability, T/C [4]: 20.2%
viability, T/C [5]: 11.4%
viability, T/C [6]: 4.55%
viability, T/C [7]: 71.3%
viability, T/C [8]: 47.4%
viability, T/C [9]: 31.6%
viability, T/C [10]: 17.6%
viability, T/C [11]: 11.4%
viability, T/C [12]: 4.51%
viability, T/C [13]: 50.1%
viability, T/C [14]: 42.2%
viability, T/C [15]: 28.9%
viability, T/C [16]: 16.3%
viability, T/C [17]: 9.51%
viability, T/C [18]: 4.96%
viability, T/C [19]: 32.2%
viability, T/C [20]: 29.3%
viability, T/C [21]: 19.2%
viability, T/C [22]: 12.7%
viability, T/C [23]: 8.96%
viability, T/C [24]: 3.93%
viability, T/C (second compound 3.16 µM, first compound 0.0316 µM): 13.7%
viability, T/C (second compound 3.16 µM, first compound 0.1 µM): 13.4%
viability, T/C (second compound 3.16 µM, first compound 0.316 µM): 11.3%
viability, T/C (second compound 3.16 µM, first compound 1 µM): 8.81%
viability, T/C (second compound 3.16 µM, first compound 3.16 µM): 6.34%
viability, T/C (second compound 3.16 µM, first compound 10 µM): 1.66%
viability, T/C (second compound 10 µM, first compound 0.0316 µM): 3.8%
viability, T/C (second compound 10 µM, first compound 0.1 µM): 3.93%
viability, T/C (second compound 10 µM, first compound 0.316 µM): 3.32%
viability, T/C (second compound 10 µM, first compound 1 µM): 2.79%
viability, T/C (second compound 10 µM, first compound 3.16 µM): 1.39%
viability, T/C (second compound 10 µM, first compound 10 µM): 0.18%

IC50 (second compound 0.00316 µM): > 10 µM
IC50 (second compound 0.01 µM): > 10 µM
IC50 (second compound 0.0316 µM): 3.83 µM
IC50 (second compound 0.1 µM): < 0.0316 µM
IC50 (second compound 0.316 µM): < 0.0316 µM
IC50 (second compound 1 µM): < 0.0316 µM
SMILES: CNC(=O)c1ccc(N2C(=S)N(c3ccc(C#N)c(C(F)(F)F)c3)C(=O)C2(C)C)cc1F + CC(Nc1ccc2c(c1)OCCn1cc(N3C(=O)OCC3C(F)F)nc1-2)C(N)=O
viability, T/C (second compound 0.00316 µM, first compound 0.0316 µM): 82.6%
viability, T/C (second compound 0.00316 µM, first compound 0.1 µM): 88%
viability, T/C (second compound 0.00316 µM, first compound 0.316 µM): 82.4%
viability, T/C (second compound 0.00316 µM, first compound 1 µM): 93.6%
viability, T/C (second compound 0.00316 µM, first compound 3.16 µM): 81%
viability, T/C (second compound 0.00316 µM, first compound 10 µM): 69.5%
viability, T/C (second compound 0.01 µM, first compound 0.0316 µM): 75.1%
viability, T/C (second compound 0.01 µM, first compound 0.1 µM): 73.8%
viability, T/C (second compound 0.01 µM, first compound 0.316 µM): 77%
viability, T/C (second compound 0.01 µM, first compound 1 µM): 74.5%
viability, T/C (second compound 0.01 µM, first compound 3.16 µM): 78.3%
viability, T/C (second compound 0.01 µM, first compound 10 µM): 62.3%
viability, T/C [1]: 55.2%
viability, T/C [2]: 56.7%
viability, T/C [3]: 57%
viability, T/C [4]: 56.6%
viability, T/C [5]: 53.1%
viability, T/C [6]: 33.8%
viability, T/C [7]: 39.1%
viability, T/C [8]: 41.5%
viability, T/C [9]: 38.1%
viability, T/C [10]: 39.9%
viability, T/C [11]: 38%
viability, T/C [12]: 30.5%
viability, T/C [13]: 28.2%
viability, T/C [14]: 27.9%
viability, T/C [15]: 25.2%
viability, T/C [16]: 28.5%
viability, T/C [17]: 24.8%
viability, T/C [18]: 22.1%
viability, T/C [19]: 20.8%
viability, T/C [20]: 21.3%
viability, T/C [21]: 24.9%
viability, T/C [22]: 18.5%
viability, T/C [23]: 20.1%
viability, T/C [24]: 18.7%
